Our source for the logP, solubility and log10 OH rate constant (cm³/molecule/s) values is the OPERA property sets (Mansouri et al. 2018).

≈ marks a conversion by molar mass, not a printed value.

Settings in the first series: not given
Regarding `O=CC=Cc1ccc([N+](=O)[O-])o1`, the logP was determined as 0.96.

Turning to `O=C(O)c1cc[n+]([O-])cc1`, the solubility was found to be 79.1 mM (≈ 11000 µg/mL).

As for `CN1CC=C(c2ccc(Cl)cc2)CC1`, the logP was 3.32.

In the case of `OC(CN1C2CCCC21)Cn1ccnc1` (stereo unspecified), the logP was 0.37.

With `CC(=O)OCN1Cc2ccccc2C1=O`, the lipophilicity (logP) worked out at 0.99.

As for `CCCNc1nc(C)nc(C(Cl)(Cl)Cl)n1`, the logP was 3.29.

On to `O=C(O)c1ccccc1S(=O)(=O)O`, for which the solubility was determined as 2470 mM (≈ 500000 µg/mL).

`Cc1c(Cl)ccc(Cc2ccc(Cl)cc2Cl)c1Cl` had a logP of 7.2.

`CCCCOCCOCCOCCCC` gave a logP of 1.92.

`N#CCCl` showed a solubility of 1320 mM (≈ 100000 µg/mL).

For the compound `Nc1ccc2[nH]ncc2c1`, the logP turned out to be 0.65.

Turning to `Nc1cccc2cccc(N)c12`, the logP stood at 1.78.

Turning to `COC(=O)C1CCN1CC(O)Cn1ccnc1` (stereo unspecified), the logP was -0.29.

With `CCNc1ncc(-c2ccncc2)cc1C#N`, the logP came out at 2.33.

As to `CCON=C(CC)C1=C(O)CC(c2c(C)cc(C)cc2C)CC1=O` (stereo unspecified), the logP was 4.46.

For `CCN1CCC[C@H]1CNC(=O)c1c(OC)ccc(Br)c1OC`, the logP came out at 2.1.

The same series, now with this note: 20 °C.
`COP(=S)(OC)Oc1nc(Cl)c(Cl)cc1Cl` had a solubility of 0.0148 mM (≈ 4.76 µg/mL).

In turn, `O=C(O)Cc1ccccc1` gave a solubility of 122 mM (≈ 16600 µg/mL).

In turn, `C/C=C/CCC` had a solubility of 0.594 mM (≈ 50 µg/mL).

Compound `CC(C)OC(=O)c1ccccc1C(=O)OC(C)C` had a solubility of 1.33 mM (≈ 332 µg/mL).

For the compound `NC(=O)c1ccccc1C(N)=O`, the solubility was determined as 3.66 mM (≈ 600 µg/mL).

The series is the same for the next values; noted with them: 23 °C.
In the case of `C[Si]1(C)O[Si](C)(C)O[Si](C)(C)O[Si](C)(C)O[Si](C)(C)O[Si](C)(C)O1`, the solubility came out at 1.15e-05 mM (≈ 0.0051 µg/mL).

Still in this series, the particulars now being: 23.0 °C.
As to `CC(=O)C1CC=C(C)CC1` (stereo unspecified), the log10 OH rate constant (cm³/molecule/s) was -9.89.

For the compound `CCOC(=O)C(C)O` (stereo unspecified), the log10 OH rate constant (cm³/molecule/s) is -11.4.

As to `O=C1C=CC(=O)O1`, the log10 OH rate constant (cm³/molecule/s) is -11.8.

The same series, now with this note: 24.0 °C.
As to `C[Si](C)(C)O[Si](C)(C)C`, the log10 OH rate constant (cm³/molecule/s) was -11.9.

As to `c1ccc2ncccc2c1`, the log10 OH rate constant (cm³/molecule/s) was -10.9.

Still in this series, the particulars now being: 25 °C.
For `CC(O)COc1ccccc1` (stereo unspecified), the solubility came to 72.3 mM (≈ 11000 µg/mL).

As to `O=[N+]([O-])c1ccc2ccccc2c1`, the solubility was 0.0534 mM (≈ 9.24 µg/mL).

For `CCCCCCCCCCCCCC`, the solubility is 1.97e-05 mM (≈ 0.00391 µg/mL).

Regarding `O=C1c2ccccc2C(=O)c2c(O)c(O)cc(O)c21`, the solubility turned out to be 0.025 mM (≈ 6.4 µg/mL).

As to `CCCC(C)Cl` (stereo unspecified), the solubility was 3.2 mM (≈ 341 µg/mL).

With `Cc1ccccc1C`, the solubility came out at 1.68 mM (≈ 178 µg/mL).

`Clc1ccc(Cl)c(-c2ccccc2Cl)c1` returned a solubility of 0.00155 mM (≈ 0.4 µg/mL).

As to `CCCCN(CCO)CCCC`, the solubility was determined as 23.1 mM (≈ 4000 µg/mL).

`Brc1cc(Br)c(OCCOc2c(Br)cc(Br)cc2Br)c(Br)c1` returned a solubility of 0.000291 mM (≈ 0.2 µg/mL).

Regarding `O=C(O)CC1CCCCC1`, the solubility worked out at 20.3 mM (≈ 2880 µg/mL).

In turn, `NS(=O)(=O)c1cc2c(s1)SCCC2=O` returned a solubility of 0.281 mM (≈ 70 µg/mL).

In the case of `Nc1ccc2c(c1)C(=O)c1ccccc1C2=O`, the solubility was 0.00073 mM (≈ 0.163 µg/mL).

As to `CCOP(=S)(OCC)SCSC(C)(C)C`, the solubility was 0.0176 mM (≈ 5.07 µg/mL).

As for `Cc1ccc2cc3ccc4ccccc4c3cc2c1`, the solubility is 0.000227 mM (≈ 0.055 µg/mL).

On to `CCOP(=O)(N=C1SCCS1)OCC`, for which the solubility is 2.55 mM (≈ 650 µg/mL).

`C[Si](C)(C)O[Si](C)(C)C` came in with a solubility of 0.00573 mM (≈ 0.93 µg/mL).

The compound `CCCCOP(=O)(OCCCC)Oc1ccccc1` displayed a solubility of 0.335 mM (≈ 96 µg/mL).

In the case of `CC(O)c1ccccc1` (stereo unspecified), the solubility is 43.8 mM (≈ 5350 µg/mL).

The compound `CC(C)C(O)C(C)(C)CO` (stereo unspecified) came in with a solubility of 130 mM (≈ 19000 µg/mL).

`Cc1ncc(CO)c(CN)c1O` yielded a solubility of 2970 mM (≈ 500000 µg/mL).

`O=C(O)c1cccc(C(=O)O)c1`: the solubility was determined as 0.602 mM (≈ 100 µg/mL).

`Oc1ccc(Cl)c2cccnc12` showed a solubility of 0.106 mM (≈ 19 µg/mL).

Consider `c1ccc2ncccc2c1`, for which the solubility is 47.3 mM (≈ 6110 µg/mL).

The same series, now with this note: 25.0 °C.
Consider `FC(F)Br`, for which the log10 OH rate constant (cm³/molecule/s) is -14.

Regarding `FC(Br)C(F)(F)F` (stereo unspecified), the log10 OH rate constant (cm³/molecule/s) is -13.8.

Take `Cc1ccccc1C`: the log10 OH rate constant (cm³/molecule/s) was -10.9.

As to `CC(C)Cl`, the log10 OH rate constant (cm³/molecule/s) was -12.

Consider `COC(=O)CCC(=O)OC`, for which the log10 OH rate constant (cm³/molecule/s) was -11.9.

Turning to `O=C1C=CC(=O)c2ccccc21`, the log10 OH rate constant (cm³/molecule/s) is -11.5.

On to `CC(C)Br`, for which the log10 OH rate constant (cm³/molecule/s) was -12.1.

For `Cc1cc2ccccc2cc1C`, the log10 OH rate constant (cm³/molecule/s) was -10.2.

For `CC(=O)C=CC=O`, the log10 OH rate constant (cm³/molecule/s) was -10.3.

`C=CCOC(F)(F)C(F)F`: the log10 OH rate constant (cm³/molecule/s) was -10.7.

On to `CC(F)(Cl)Cl`, for which the log10 OH rate constant (cm³/molecule/s) was -14.2.

Regarding `CCOC(F)(F)C(F)F`, the log10 OH rate constant (cm³/molecule/s) was -12.6.

In the case of `FC(Cl)C(F)(F)Cl` (stereo unspecified), the log10 OH rate constant (cm³/molecule/s) is -13.9.

Take `CC(=O)CC1C(CC=O)C1(C)C` (stereo unspecified): the log10 OH rate constant (cm³/molecule/s) is -10.3.

For the compound `COCOC`, the log10 OH rate constant (cm³/molecule/s) was -11.3.

Still in this series, the particulars now being: 26 °C.
`Clc1cc2oc3cc(Cl)c(Cl)cc3c2cc1Cl`: the solubility was 2.26e-06 mM (≈ 0.000692 µg/mL).

One may read the logP as a log measure of how a compound divides between an organic and an aqueous phase. A low value points to a more hydrophilic compound. Usually solubility stands for the dissolved amount per volume that the medium holds.
